Measurements as given in the supplement of paper PMC10307832.

Legend:
Assay in all cases: relative viability (nuclei count vs DMSO), 5 days (fraction); higher = more cells survive
NVP-TAE684 + Linsitinib = compound: COc1cc(N2CCC(N3CCN(C)CC3)CC2)ccc1Nc1ncc(Cl)c(Nc2ccccc2S(=O)(=O)C(C)C)n1 [NVP-TAE684] + C[C@]1(O)C[C@@H](c2nc(-c3ccc4ccc(-c5ccccc5)nc4c3)c3c(N)nccn32)C1 [Linsitinib] (partner 1 µM)
Summary of the method: (§1)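 For relative viability, nuclei counts in treated wells were divided by those in vehicle wells. Lung cancer cell lines had been pin-tool dosed in 1536-well plates the day after seeding and cultured for 5 days, then fixed and stained in one step (final 0.05% Triton X-100, 1% formaldehyde, 1 ug/ml Hoechst) and imaged at 4×. Doses were one drug alone or a fixed anchor-drug dose plus five library-drug doses (not always all listed) in √10 steps, and values are duplicate-plate medians.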

CUDC-101 + OSI-027 = compound: C#Cc1cccc(Nc2ncnc3cc(OC)c(OCCCCCCC(=O)NO)cc23)c1 [CUDC-101] + COc1cccc2cc(-c3nc([C@H]4CC[C@H](C(=O)O)CC4)n4ncnc(N)c34)[nH]c12 [OSI-027] (partner 0.5 µM)
Summary of the method: as §1

Vandetanib + Decitabine = compound: COc1cc2/c(=N/c3ccc(Br)cc3F)nc[nH]c2cc1OCC1CCN(C)CC1 [Vandetanib] + Nc1ncn([C@H]2C[C@H](O)[C@@H](CO)O2)c(=O)n1 [Decitabine] (partner 2 µM)
Summary of the method: as §1

[1] = compound: C1=CC=C2C(=C1)N=C(S2)C(C#N)C3=NC(=NC=C3)NCCC4=CN=CC=C4 + Cc1nc(Nc2ncc(C(=O)Nc3c(C)cccc3Cl)s2)cc(N2CCN(CCO)CC2)n1 [Dasatinib] (partner 0.075 µM)
Summary of the method: as §1

| Cell Line | relative viability (NVP-TAE684 + Linsitinib; first compound 0.2 µM) | relative viability (NVP-TAE684 + Linsitinib; first compound 0.6325 µM) | relative viability (NVP-TAE684 + Linsitinib; first compound 2 µM) | relative viability (CUDC-101 + OSI-027; first compound 0.01 µM) | relative viability (CUDC-101 + OSI-027; first compound 0.03162 µM) | relative viability (CUDC-101 + OSI-027; first compound 0.1 µM) | relative viability (CUDC-101 + OSI-027; first compound 0.3162 µM) | relative viability (CUDC-101 + OSI-027; first compound 1 µM) | relative viability (Vandetanib + Decitabine; first compound 0.02 µM) | relative viability (Vandetanib + Decitabine; first compound 0.06325 µM) | relative viability (Vandetanib + Decitabine; first compound 0.2 µM) | relative viability (Vandetanib + Decitabine; first compound 0.6325 µM) | relative viability (Vandetanib + Decitabine; first compound 2 µM) | relative viability ([1]; first compound 0.005 µM) | relative viability ([1]; first compound 0.01581 µM) | relative viability ([1]; first compound 0.05 µM) | relative viability ([1]; first compound 0.1581 µM) | relative viability ([1]; first compound 0.5 µM) |
| --- | --- | --- | --- | --- | --- | --- | --- | --- | --- | --- | --- | --- | --- | --- | --- | --- | --- | --- |
| PC-3 [JPC-3] | 0.96 | 0.934 | 0.843 | 0.758 | 0.786 | 0.514 | 0.547 | 0.407 | 0.876 | 0.847 | 0.72 | 0.661 | 0.488 | 0.877 | 1.07 | 0.962 | 1.08 | 0.73 |
| IA-LM | 0.386 | 0.503 | 0.627 |  |  |  |  |  |  |  |  |  |  |  |  |  |  |  |
| NCI-H520 | 0.911 | 0.986 | 0.45 | 0.218 | 0.281 | 0.327 | 0.256 | 0.191 | 0.496 | 0.483 | 0.429 | 0.495 | 0.502 | 0.231 | 0.158 | 0.188 | 0.324 | 0.18 |
| A549 | 0.539 | 0.603 | 0.532 |  |  |  |  |  | 0.189 | 0.267 | 0.281 | 0.252 | 0.34 |  |  |  |  |  |
| BEN | 0.804 | 0.904 | 0.848 | 0.336 | 0.259 | 0.348 | 0.281 | 0.292 | 0.651 | 0.7 | 0.625 | 0.725 | 0.446 | 0.229 | 0.323 | 0.326 | 0.479 | 0.425 |
| COR-L 105 | 0.915 |  | 0.625 | 0.717 | 0.73 | 0.399 | 0.61 | 0.204 | 0.683 | 0.574 | 0.622 | 0.561 | 0.505 | 0.344 | 0.297 | 0.34 | 0.303 | 0.29 |
| NCI-H1734 | 0.849 | 0.92 | 0.818 | 0.641 | 0.577 | 0.638 | 0.608 | 0.38 | 0.495 | 0.494 | 0.537 | 0.526 | 0.513 |  | 0.476 | 0.479 | 0.605 | 0.401 |
| LOU-NH91 | 0.936 | 0.832 | 0.665 | 0.753 | 0.633 | 0.523 | 0.514 | 0.443 | 0.816 | 0.734 | 0.681 | 0.679 | 0.66 | 0.501 | 0.567 | 0.509 | 0.58 | 0.471 |
| NCI-H2405 |  | 0.849 | 0.573 | 0.643 | 0.613 | 0.721 | 0.734 | 0.541 | 0.749 | 0.687 | 0.747 | 0.8 | 0.718 | 0.214 | 0.187 | 0.168 | 0.234 | 0.219 |
| HCC-15 | 0.84 | 0.866 | 0.601 | 0.697 | 0.696 | 0.674 | 0.73 | 0.584 | 0.662 | 0.516 | 0.562 | 0.616 | 0.616 | 0.569 | 0.578 | 0.564 | 0.703 | 0.508 |
| HCC-44 | 0.785 | 0.674 | 0.482 | 0.527 | 0.685 | 0.587 | 0.586 | 0.295 | 0.999 | 0.992 | 0.949 | 0.897 | 0.973 |  |  |  |  |  |
| NCI-H1792 | 0.451 | 0.509 | 0.504 | 0.777 | 0.649 | 0.731 | 0.715 | 0.629 | 0.487 | 0.469 | 0.698 | 0.53 | 0.444 | 0.722 | 0.83 | 0.837 | 1.29 | 0.665 |
| NCI-H2347 | 1.06 | 0.976 | 0.875 | 0.313 | 0.38 | 0.402 | 0.469 | 0.25 | 0.595 | 0.525 | 0.685 | 0.619 | 0.568 | 0.359 | 0.814 | 0.261 | 0.347 | 0.307 |
| SW 900 |  |  |  | 0.577 | 0.42 | 0.562 | 0.577 | 0.662 | 0.406 | 0.39 |  | 0.48 | 0.437 | 0.625 | 0.53 | 0.564 | 0.844 | 0.543 |
| RERF-LC-KJ | 0.921 | 1.01 |  | 0.517 | 0.612 | 0.674 | 0.585 | 0.401 | 0.711 | 0.74 | 0.737 | 0.665 | 0.555 | 0.796 | 0.863 | 0.756 | 0.952 | 0.527 |
| NCI-H522 |  |  |  | 0.638 | 0.64 | 0.67 | 0.703 | 0.549 | 0.619 | 0.691 | 0.717 | 0.768 | 0.646 | 0.873 | 0.822 | 0.884 | 1.05 | 0.935 |
| NCI-H1666 | 0.828 | 0.605 | 0.591 | 0.85 | 0.867 | 0.837 | 0.857 | 0.739 | 0.74 | 0.675 | 0.731 | 0.757 | 0.553 | 0.603 | 0.754 | 0.734 | 0.838 | 0.818 |
| LC-2-ad | 0.842 | 0.771 | 0.218 | 0.823 | 1.04 | 0.985 | 0.827 | 0.339 | 0.707 | 0.729 | 0.89 | 0.836 | 0.616 | 0.542 | 0.398 | 0.55 | 0.525 | 0.396 |
| NCI-H2023 | 0.517 | 0.669 | 0.265 | 0.433 | 0.461 | 0.432 | 0.488 | 0.325 | 0.235 | 0.183 | 0.225 | 0.253 | 0.204 | 0.454 | 0.519 | 0.504 | 0.78 | 0.364 |
